Data published in patent publication US11166942B2 (PRAXIS BIOTECH LLC, priority 2018, dated 2021).
pIC50: −log10 of the molar value. Read-outs that look alike come from different tables or passages of the source.

Tests used:
[1] = tested on: ATF4; experiment: ATF4 expression inhibition assay (ATF4 5'UTR luciferase reporter, Tg-stressed HEK293T cells); format: cell-based, human; conditions: Homo sapiens, HEK-293T, 3 h, 100 nM thapsigargin, 3 hours, HEK293T ATF4 luciferase reporter
In short: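 HEK293T stably expressing luciferase fused downstream of human full-length ATF4 5′UTR, stressed with 100 nM thapsigargin plus compound (100 nM or 1 μM; IC50 series 0.1 nM to 1 μM) for 3 h at 37° C. Luminescence normalized to Tg alone (0%) and untreated cells (100% inhibition).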

[2] = tested on: Chinese hamster ovary (CHO) cells; experiment: Protein translation assay (puromycin labelling, CHO cells); format: cell-based; conditions: Cricetulus griseus, CHO, media alone = 100%
In short: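 CHO cells given compound 2 h at 1 μM (unstressed), or 1 h at 100 nM or 1 μM then co-treated with 300 nM Tg (stressed); 10 μg/ml puromycin pulse 30 min, anti-puromycin western blot with β-actin, densitometry. Normalized to media alone (100%) and, for stressed cells, Tg alone (0%).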

`O=C(NN1CCN(C[C@@H](O)COc2ccc(Cl)c(F)c2)CC1)c1ccc2cc(Cl)ccc2n1` [Compound 58, (R)-6-chloro-N-(4-(3-(4-chloro-3-fluorophenoxy)-2-hydroxypropyl)piperazin-1-yl)quinoline-2-carboxamide] was tested, and the inhibition at 0.1 µM ([1]; 100 nM test compound, read-out: % ATF4 inhibition at 100 nM) was 86.5%, the pIC50 ([1]; read-out: ATF4 inhbition IC50) was 8.24 and the inhibition at 1 µM ([1]; 1 μM test compound, read-out: % ATF4 inhibition at 1 μM) was 97.6%. It also gave an activity at 1 µM ([2]; 2 h, unstressed CHO cells, 1 μM, 2 hours, read-out: % Protein synthesis in unstressed cells (1 μM test compound)) of 164% and an activity at 1 µM ([2]; CHO cells stressed with 300 nM Tg, 1 μM compound, Tg alone = 0%, read-out: % Recovery of protein expression (1 μM test compound)) of 118%.
